Patent publication US20210308103A1, “TASK-1 INHIBITORS FOR TREATMENT OF ATRIAL ARRHYTHMIAS” (Universität Heidelberg, priority 2018, published 2021)
pIC50: −log10 of the molar value. Read-outs that look alike come from different tables or passages of the source.

Assays:
[1] = test system: pigs with persistent atrial fibrillation; test: Cardioversion of pacing-induced persistent atrial fibrillation in pigs; type: in vivo, pig
Description: Doxapram and ketodoxapram were successfully applied for cardioversion in pigs. To induce atrial fibrillation in pigs, at first, pacemakers were implanted. Atrial fibrillation was induced by atrial rapid pacing. […] On average, pharmacological cardioversion to sinus rhythm was successful 3 minutes after injection of doxapram or ketodoxapram.

[2] = Plasma pharmacokinetics in pigs after intravenous doxapram; type: in vivo, pig; details: for Tmax / AUC(0-inf) / Cmax / AUC / half-life: 1.8 mg/kg body weight; for Tmax / AUCextra / AUC(0-inf) / Cmax / AUC / half-life: intravenous bolus of doxapram; for AUC(0-inf) / Cmax / AUC / half-life: pig, plasma, iv; for AUC: read-out: AUC0-n
Excerpt: FIG. 3: Pharmacokinetics of doxapram and ketodoxapram in pigs after intravenous administration. Concentration of doxapram and ketodoxapram, respectively, as measured in plasma samples taken at the indicated time points.
Pharmacokinetics of doxapram and ketodoxapram.
(§1) Analysis of doxapram and ketodoxapram in tissues. Mass spectrometry, in particular liquid chromatography tandem-mass spectrometry (LC-MS/MS) with deuterated internal standard, was used to quantify the concentrations of doxapram and ketodoxapram in tissue samples and plasma.
Doxapram was administered as an intravenous bolus to pigs and plasma concentration was determined over time.

in vivo = details: pig
Excerpt: FIG. 4: Quantification of doxapram and ketodoxapram in porcine tissue samples. A) doxapram and ketodoxapram were quantified in brain tissue samples (CNS) and plasma samples of two pigs; B) Concentrations of doxapram and ketodoxapram in brain tissues of pigs treated with doxapram, which was metabolized to ketodoxapram.
FIG. 6: Correlation between plasma concentration and brain concentration of doxapram and its metabolite ketodoxapram in pigs after intravenous administration of doxapram; pig numbers and their group status are indicated (SR: sinus rhythm; AF: atrial fibrillation).
FIG. 7: Correlation between plasma concentration and brain concentration of ketodoxapram in pigs after intravenous administration of ketodoxapram; pig numbers and their group status are indicated (AF: atrial fibrillation).
FIG. 8: Short-term distribution of doxapram and its metabolite ketodoxapram in pigs 30 min after administration of doxapram; pig numbers and their group status are indicated (SR: sinus rhythm).
Quantification of ketodoxapram and doxapram in porcine tissues. In two pigs, doxapram and ketodoxapram were administered and quantified in brain tissue samples (CNS) and plasma samples (FIG. 4A).
as §1
Pigs with sinus rhythm or atrial fibrillation were treated with intravenous doxapram and plasma and brain samples were taken essentially simultaneously.
In two pigs, doxapram and ketodoxapram concentrations were determined in brain and plasma 30 min after intravenous administration.

[3] = test system: atrial fibrillation (AF) in humans; test: Cardioversion of atrial fibrillation in humans; type: in vivo, human; details: injection via peripheral venous catheter, dose adapted to body weight
Description: For cardioversion of atrial fibrillation (AF) in humans, doxapram can be injected via a peripheral venous catheter. The dose will be adapted to the body weight of the patient. Cardioversion is achieved within a few minutes (<30 minutes). The ECG of the patient is continuously monitored to detect the presence of atrial fibrillation (AF) or successful cardioversion. In case of an unsuccessful cardioversion, a second dose can be applied. If AF is present after applying the second dose, a conventional electrical cardioversion can be performed. To prevent AF episodes, patients can receive repeated a maintenance doses adapted to the body weight for oral or intravenous application.

Kv1.5 = molecular target: T1, Kv1.5 (Homo sapiens, UniProt P22460); test: Ion channel current inhibition in Xenopus laevis oocytes, Kv1.5; type: cell-based; details: FIG. 1D
T1 construct: expressed in transfected cells; host or cells: Xenopus laevis oocytes
T1 sequence (P22460 whole entry): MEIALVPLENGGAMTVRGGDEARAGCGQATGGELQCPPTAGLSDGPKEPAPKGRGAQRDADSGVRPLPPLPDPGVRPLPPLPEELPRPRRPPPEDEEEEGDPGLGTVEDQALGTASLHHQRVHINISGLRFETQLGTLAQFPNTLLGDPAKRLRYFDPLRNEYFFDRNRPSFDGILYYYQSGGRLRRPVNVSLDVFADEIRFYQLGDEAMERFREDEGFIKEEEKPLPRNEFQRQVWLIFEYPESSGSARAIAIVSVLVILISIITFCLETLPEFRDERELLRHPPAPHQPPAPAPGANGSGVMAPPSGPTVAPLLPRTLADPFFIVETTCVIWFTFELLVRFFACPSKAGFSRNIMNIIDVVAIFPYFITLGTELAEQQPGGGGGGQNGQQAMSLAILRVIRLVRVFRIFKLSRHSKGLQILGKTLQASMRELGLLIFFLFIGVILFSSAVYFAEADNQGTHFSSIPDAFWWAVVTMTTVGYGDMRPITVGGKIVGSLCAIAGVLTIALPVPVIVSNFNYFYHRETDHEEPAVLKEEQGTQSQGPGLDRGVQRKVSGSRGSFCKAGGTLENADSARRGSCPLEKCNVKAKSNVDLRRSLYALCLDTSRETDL
Excerpt: (§2) FIG. 1: Inhibitory effects of doxapram and ketodoxapram on TASK-1 K-ion channels, recorded by voltage-clamp measurements in Xenopus laevis oocytes. A) Concentration-effect curve for doxapram on porcine TASK-1; B) Concentration-effect curve for doxapram on human TASK-1; C) Concentration-effect curve for ketodoxapram on human TASK-1; […] E) Inhibition of TASK-1 by doxapram, ketodoxapnram, and mixtures thereof. The ion channels TASK-1 ([…].1), Kv4.3, Kv1.5, Kv2.1, Kir3.1/4, Kv1.4 are predominantly expressed in the atrial myocardium. The ion channel TASK-3 ([…].1) is not expressed in the human myocardium but structurally related to TASK-1 (Schmidt C et al. (2015), Circulation 132(2): 82). Ion channel current inhibition was measured in Xenopus laevis oocytes (FIG. 1 D)).

[4] = Plasma trough concentrations in pigs during long-term administration; type: in vivo, pig; details: repeated intravenous doses of doxapram over 18 days, FIG. 9
Description: FIG. 9: Plasma trough concentrations of doxapram and its metabolite ketodoxapram in pigs during repetitive intravenous administration of doxapram over 18 days.
FIG. 10: Plasma concentrations of ketodoxapram in pigs during long-term administration of ketodoxapram.
Pigs were administered repeated doses of doxapram over a period of several days.

TASK-1 [5] = molecular target: T2, TASK-1 (Homo sapiens, UniProt O14649); test: TASK-1 current inhibition, voltage clamp in Xenopus laevis oocytes (human channel); type: cell-based; parameters: expressed in transfected cells; host or cells: Xenopus laevis oocytes; details: for Competition between ketodoxapram and doxapram at TASK-1: both compounds present, FIG. 1E; for pIC50: voltage clamp, FIG. 1B/1C
T2 sequence (O14649 whole entry): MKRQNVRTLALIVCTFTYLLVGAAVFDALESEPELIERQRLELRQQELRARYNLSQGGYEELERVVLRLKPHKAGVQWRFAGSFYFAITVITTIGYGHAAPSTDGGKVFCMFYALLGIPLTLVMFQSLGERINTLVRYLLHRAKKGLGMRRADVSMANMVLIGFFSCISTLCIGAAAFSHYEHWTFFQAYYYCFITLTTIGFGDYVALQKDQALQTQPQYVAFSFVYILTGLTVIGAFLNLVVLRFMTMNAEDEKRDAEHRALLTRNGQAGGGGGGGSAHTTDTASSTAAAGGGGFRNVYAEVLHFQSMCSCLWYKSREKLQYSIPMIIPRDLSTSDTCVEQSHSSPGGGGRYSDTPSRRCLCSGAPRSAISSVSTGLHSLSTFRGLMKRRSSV
Excerpt: as §2, with “thereof. Concentration-response curves for ketodoxapram and doxapram. TASK-1 current inhibition was recorded by voltage clamp measurements in Xenopus laevis oocytes according to standard protocols. […]” for “thereof.”, “D)). […] To test for competition between ketodoxapram and doxapram, concentration-response curves were determined by measuring TASK-1 current inhibition recorded by voltage clamp measurements in Xenopus laevis oocytes.” for “D)).”

[6] = oral administration of enteric-coated doxapram; cited from earlier work
pigs = test: Adverse effects observed in pigs on overdosing; type: in vivo, pig; details: pigs 40-60 kg body weight
Description: Adverse effects observed in pigs. […] These effects were not observed when an overdose of ketodoxapram was administered.

porcine TASK-1 = porcine TASK-1 (Sus scrofa, UniProt A0A286ZMZ4); test: TASK-1 current inhibition, voltage clamp in Xenopus laevis oocytes (porcine channel); type: cell-based; details: FIG. 1A
porcine TASK-1, sequence (A0A286ZMZ4 1-401): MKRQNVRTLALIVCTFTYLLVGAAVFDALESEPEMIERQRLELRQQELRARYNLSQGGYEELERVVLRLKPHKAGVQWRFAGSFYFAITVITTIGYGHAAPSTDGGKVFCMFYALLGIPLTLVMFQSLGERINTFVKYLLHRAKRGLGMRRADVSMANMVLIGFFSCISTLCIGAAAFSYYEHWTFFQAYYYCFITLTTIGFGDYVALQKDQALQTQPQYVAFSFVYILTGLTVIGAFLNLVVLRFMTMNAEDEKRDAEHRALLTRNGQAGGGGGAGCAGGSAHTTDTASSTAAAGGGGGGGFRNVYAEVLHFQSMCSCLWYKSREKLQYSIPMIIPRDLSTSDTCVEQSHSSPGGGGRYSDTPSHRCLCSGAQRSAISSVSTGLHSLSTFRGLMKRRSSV
Excerpt: FIG. 1: Inhibitory effects of doxapram and ketodoxapram on TASK-1 K-ion channels, recorded by voltage-clamp measurements in Xenopus laevis oocytes. A) Concentration-effect curve for doxapram on porcine TASK-1; B) Concentration-effect curve for doxapram on human TASK-1; C) Concentration-effect curve for ketodoxapram on human TASK-1; […] E) Inhibition of TASK-1 by doxapram, ketodoxapnram, and mixtures thereof. Concentration-response curves for ketodoxapram and doxapram. TASK-1 current inhibition was recorded by voltage clamp measurements in Xenopus laevis oocytes according to standard protocols.

TASK-1 [7] = molecular target: T2, TASK-1; test: TASK-1 current inhibition, patch-clamp in human atrial cardiomyocytes; type: cell-based; parameters: human atrial cardiomyocytes isolated from heart auricles of patients with sinus rhythm; endogenous in cells; host or cells: human atrial cardiomyocytes from heart auricles of patients with sinus rhythm; details: cardiomyocytes from heart auricles of patients with sinus rhythm, FIG. 2
Excerpt: FIG. 2: Effects of ketodoxapram and doxapram in human atrial cardiomyocytes recorded by voltage-clamp measurements.

[8] = Pharmacokinetics in a horse after three intravenous doses of doxapram; type: in vivo; details: FIG. 11
Description: FIG. 11: Pharmacokinetics of doxapram and its metabolite ketodoxapram in a horse after three intravenous administrations of doxapram.
Three intravenous doses of doxapram were administered to a horse.

[9] = intravenous 1.8 mg per kg body weight
[10] = average of pigs 98, 99, 100, plasma
[11] = average of pigs 98, 99, 100, plasma, read-out: T1/2 (converted)
[12] = pig 98, plasma, read-out: T1/2 (converted)
[13] = pig 99, plasma, read-out: T1/2 (converted)
[14] = pig 100, plasma, read-out: T1/2 (converted)
[15] = pigs, summary of Table 1, read-out: Elimination half-life
[16] = iv, Brain concentration as percentage of plasma concentration
[17] = Xenopus laevis oocytes, FIG. 1D
[18] = intravenous 0.5 mg per kg body weight

| Tmax ([2]; pig 98, plasma) [h] | AUCextra [2, 10] [%] | AUCextra ([2]; pig 98, plasma) [%] | AUCextra ([2]; pig 99, plasma) [%] | AUCextra ([2]; pig 100, plasma) [%] | AUC(0-inf) [2, 10] [ng·h/mL] | Cmax [2, 10] [ng/mL] | AUC [2, 10] [ng·h/mL] | half-life [2, 11] [h] | AUC(0-inf) ([2]; pig 98, plasma) [ng·h/mL] | Cmax ([2]; pig 98, plasma) [ng/mL] | AUC ([2]; pig 98, plasma) [ng·h/mL] | half-life [2, 12] [h] | AUC(0-inf) ([2]; pig 99, plasma) [ng·h/mL] | Cmax ([2]; pig 99, plasma) [ng/mL] | AUC ([2]; pig 99, plasma) [ng·h/mL] | half-life [2, 13] [h] | AUC(0-inf) ([2]; pig 100, plasma) [ng·h/mL] | Cmax ([2]; pig 100, plasma) [ng/mL] | AUC ([2]; pig 100, plasma) [ng·h/mL] | SMILES | further results |
| --- | --- | --- | --- | --- | --- | --- | --- | --- | --- | --- | --- | --- | --- | --- | --- | --- | --- | --- | --- | --- | --- |
| 0 | 0.80 | 0.61 | 1.53 | 0.26 | 2950 | 4090 | 2930 | 2.12 | 2200 | 2310 | 2180 | 1.92 | 3180 | 5060 | 3130 | 2.65 | 3480 | 4900 | 3470 | CCN1CC(CCN2CCOCC2)C(c2ccccc2)(c2ccccc2)C1=O (stereo not drawn) [doxapram, 1-ethyl-4-(2-morpholin-4-ylethyl)-3,3-diphenyl-pyrrolidin-2-one] | Cardioversion of persistent atrial fibrillation [1, 9]: sufficient for cardioversion in all tested animals; Time to cardioversion to sinus rhythm after injection, on average [1, 9]: 3 min; Metabolism of doxapram in pigs ([2]; doxapram 1.8 mg/kg body weight, plasma samples, FIG. 3): rapidly metabolized to ketodoxapram; half-life [2, 14]: 1.79 h; half-life [2, 15]: 2 to 3 h; Plasma concentrations of doxapram and ketodoxapram relative to each other (in vivo): similar; Accumulation in the brain relative to ketodoxapram (in vivo; iv): 60-500 times; Detection of doxapram after ketodoxapram administration (in vivo; iv): not detected; Kp (in vivo; [16]): 0.0024; Kp at 30 min (in vivo; [16]): 0.001; Time to cardioversion [3]: < 30 min; Inhibition of ion channel Kv1.5 (Kv1.5): not inhibited; Course of plasma trough concentrations [4]: initial accumulation phase; Most strongly inhibited ion channel among TASK-1, TASK-3, Kv4.3, Kv1.5, Kv2.1, Kir3.1/4, Kv1.4 (TASK-1 [5]; [17]): TASK-1 was the most strongly inhibited ion channel; Competition between ketodoxapram and doxapram at TASK-1 (TASK-1 [5]): replaced at the ion channel by ketodoxapram; pIC50 (TASK-1 [5]; Xenopus laevis oocytes): 6.30; Concentrations of doxapram and ketodoxapram in plasma relative to each other [6]: about equal; Central nervous adverse effects (pigs): clear signs of central nervous adverse effects; pIC50 (porcine TASK-1): 6.00 |
| 1 | 6.99 | 4.65 | 12.36 | 3.96 | 308 | 47.9 | 282 | 2.81 | 157 | 31.8 | 149 | 2.59 | 504 | 63.5 | 442 | 3.48 | 265 | 48.3 | 254 | CCN1CC(CCN2CCOCC2=O)C(c2ccccc2)(c2ccccc2)C1=O (stereo not drawn) [ketodoxapram, 4-(2-(1-ethyl-5-oxo-4,4-diphenyl-3-pyrrolidinyl)ethyl)-3-morpholinone] | Cardioversion of persistent atrial fibrillation [1, 18]: sufficient for cardioversion in all tested animals; Time to cardioversion to sinus rhythm after injection, on average [1, 18]: 3 min; half-life [2, 14]: 2.36 h; half-life [2, 15]: 2 to 3 h; TASK-1 inhibition compared with doxapram (TASK-1 [7]): significantly stronger than inhibition by doxapram; Concentration in brain tissue compared with doxapram in the same tissue (in vivo): several orders of magnitude lower; Crossing of the blood-brain barrier compared with doxapram (in vivo): much less effectively than doxapram; Plasma concentrations of doxapram and ketodoxapram relative to each other (in vivo): similar; Brain concentration as percentage of the corresponding doxapram concentration (in vivo; iv): 0.2-1.7%; Inhibition of ion channel Kv1.5 (Kv1.5): not inhibited; Course of plasma trough concentrations [4]: initial accumulation phase; Initial metabolite accumulation phase [8]: 4 to 5 days; Plasma concentration as percentage of parent compound doxapram [8]: about 10%; Effect on TASK-1 compared with doxapram (TASK-1 [5]; [17]): significantly stronger than the effect of doxapram; Most strongly inhibited ion channel among TASK-1, TASK-3, Kv4.3, Kv1.5, Kv2.1, Kir3.1/4, Kv1.4 (TASK-1 [5]; [17]): TASK-1 was the most strongly inhibited ion channel; Competition between ketodoxapram and doxapram at TASK-1 (TASK-1 [5]): stronger affinity to TASK-1; pIC50 (TASK-1 [5]; Xenopus laevis oocytes): 5.90; Concentrations of doxapram and ketodoxapram in plasma relative to each other [6]: about equal; Central nervous adverse effects (pigs): not observed |
